Experimental findings from patent US20260274876A1, “3-PYRROLIDINE-INDOLE DIMERS AS SEROTONERGIC AGENTS USEFUL FOR THE TREATMENT OF DISORDERS RELATED THERETO” (MINDSET PHARMA INC., priority 2022, published 2026) are described below.

Each structure is given as a SMILES string.

For this experiment, the target named is T1, human 5-HT1A receptor (Homo sapiens, UniProt P08908).
T1 sequence (P08908 1-422): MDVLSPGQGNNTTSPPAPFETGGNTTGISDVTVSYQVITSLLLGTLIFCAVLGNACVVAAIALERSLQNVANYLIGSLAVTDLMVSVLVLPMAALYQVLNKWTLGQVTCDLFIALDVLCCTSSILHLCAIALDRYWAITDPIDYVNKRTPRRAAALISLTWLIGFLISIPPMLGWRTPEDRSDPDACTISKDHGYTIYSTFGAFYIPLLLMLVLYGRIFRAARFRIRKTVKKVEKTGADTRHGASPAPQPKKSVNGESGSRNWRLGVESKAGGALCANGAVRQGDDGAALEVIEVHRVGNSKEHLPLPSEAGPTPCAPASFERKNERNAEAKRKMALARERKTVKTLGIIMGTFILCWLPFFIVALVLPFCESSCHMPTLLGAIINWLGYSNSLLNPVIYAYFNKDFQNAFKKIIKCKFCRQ
Kind of experiment: Human 5-HT1A functional FLIPR assay (agonist mode). Format: cell-based. The arrangement: expressed in transfected cells. To be noted: h5-HT1A, curve fitting with activation (%) @ 10 mM with RFU (footnote). As for the experimental part: The potential excitatory effects of compounds targeting on 5-hydroxytryptamine receptor 1A (5-HT1A) under agonist mode was assessed.
HTR1A&Gα15-CHO cells were cultured in DMEM/F12 medium containing 10% dialyzed FBS, 1×penicillin-streptomycin and 600 μg/mL Hygromycin B. The cells were passaged about three times a week, maintained between ~30% to ~90% confluence.
• 1. The cell culture medium (DMEM/F12 medium containing 10% dialyzed FBS, 1×penicillin-streptomycin and 600 μg/mL Hygromycin B), TrypLE™ Express and DPBS was warmed to R.T. in advance. • 2. The cell culture medium was removed from flask. Washed cells with DPBS. • 3. 1 mL TrypLE™ Express was added to the flask, mixed well by gentle shaking and cells were incubated at 37° C. for a few minutes. • 4. The cells were checked for morphological change under microscope, the digestion was stopped by adding 2 mL cell culture medium to the flask when most of cells turned to round. • 5. The cell suspension was transferred into a 15 mL centrifuge tube, and then centrifuged at 1,200 rpm for 5 minutes. • 6. The supernatant was removed. The cell pellet were resuspended with 2 mL cell culture medium. • 7. The cell density were counted using cell counter. Only cells with >85% viability were used for the assay. • 8. Cells were diluted to 4×10^5/mL with cell culture medium. • 9. 30 μL/well cell suspensions were added into a 384-well cell plate (The cell density was 12,000 cells/well). • 10. The cell plate was incubated overnight at 37° C., 5% (v/v) CO2.
• 1. On the day of experiments, culture medium was removed from the cell plate. • 2. 10 μL of assay buffer (20 mM HEPES, in 1×HBSS, pH 7.4) was added to each well of the cell plate. • 3. 2×dye solution was prepared following the manufacture's instruction of the FLIPR® Calcium 6 assay kit: • i. The dye was diluted with assay buffer. • ii. probenecid was added to the final concentration of 5 mM. • iii. Vortexed vigorously for I-2 minutes, adjust pH to 7.4. • 4. 10 μL of 2×dye solution was added to each well of the cell plate. • 5. The cell plate was placed on plate shaker, followed by shaking at 600 rpm for 2 minutes. • 6. The plate was incubated at 37° C. for 2 hours followed by an additional 15-minute incubation at 25° C.
• 1. Serotonin was prepared to the concentration of 10 mM with DMSO, 3-folds serial dilutions were performed with DMSO. • 2. Prepare the test compound to the concentration of 10 mM with DMSO, preform 3-folds serial dilutions with DMSO. • 3. The compounds were added to a 384-well compound source plate. • 4. 90 nL/well of serial diluted compounds were transferred from source plate to a 384-well compound plate by using an Echo. • 5. 30 μL/well of assay buffer was added to the compound plate. • 6. The plate was mixed on-plate shaker for 2 minutes.
• 1. After the cells incubate with dye solution, the cell plate, compound plate containing 3×compounds and FLIPR tips were placed into FLIPR. • 2. 10 μL of 3×compounds were transferred from the compound plate to the cell plate by FLIPR. • 3. The plate was read for 160 sec with 1 sec interval to obtain the data of agonist mode.
• 1. The normalized fluorescence reading (RFU) was calculated as shown below, wherein Fmax and Fmin stand for maximum and minimum of calcium signal during defined time window:
[formula] • 2. EC50 was calculated by fitting RFU against log of compound concentrations with Hill equation using XLfit.
Turning to `CN1CCC[C@@H]1Cc1c[nH]c2cccc(O)c12` [Compound 10, (R)-3-((1-methylpyrrolidin-2-yl)methyl)-1H-indol-4-ol], the “RFU@10 μM” value worked out at 425 RFU.

On to `[2H]C([2H])(c1c[nH]c2cccc(O)c12)[C@H]1CCCN1C([2H])([2H])[2H]` [Compound 13, (R)-3-((1-(methyl-d3)pyrrolidin-2-yl)methyl-d2)-1H-indol-4-ol], for which the “RFU@10 μM” value is reported as 307 RFU.

As to `CN(C)CCc1c[nH]c2cccc(O)c12` [Psilocin, 4-hydroxy-N,N-dimethyltryptamine, reference compound], the “RFU@10 μM” value came out at 140 RFU.

For the compound `[2H]C([2H])(c1c[nH]c2cccc(OC(=O)CCCC(=O)Oc3cccc4[nH]cc(C([2H])([2H])[C@H]5CCCN5C([2H])([2H])[2H])c34)c12)[C@H]1CCCN1C([2H])([2H])[2H]` [Compound I-22, bis(3-(((R)-1-(methyl-d3)pyrrolidin-2-yl)methyl-d2)-1H-indol-4-yl) glutarate], the “RFU@10 μM” value came out at 130 RFU.

For the compound `CN1CCC[C@@H]1Cc1c[nH]c2cccc(OC(=O)CCCC(=O)Oc3cccc4[nH]cc(C[C@H]5CCCN5C)c34)c12` [Compound I-13, Bis(3-(((R)-1-methylpyrrolidin-2-yl)methyl)-1H-indol-4-yl) glutarate], the “RFU@10 μM” value is recorded as 87 RFU.
